Laboratory results reported in patent publication US20230139171A1 (SITA Information Networking Computing UK Limited, priority 2019, published 2023).

How the values were obtained:
Assay type in all cases: cell-based
[1] = biological target: T1, human TLR7 (Homo sapiens, UniProt Q9NYK1); test: TLR7 inhibition reporter assay (HEK-Blue cells, SEAP reporter, gardiquimod stimulation); conditions: HEK-Blue cells overexpressing human TLR7, SEAP reporter, gardiquimod 7.5 μM; read-out: TLR7 IC50
T1 construct: host or cells: HEK-Blue cells
T1 sequence (Q9NYK1 27-1049): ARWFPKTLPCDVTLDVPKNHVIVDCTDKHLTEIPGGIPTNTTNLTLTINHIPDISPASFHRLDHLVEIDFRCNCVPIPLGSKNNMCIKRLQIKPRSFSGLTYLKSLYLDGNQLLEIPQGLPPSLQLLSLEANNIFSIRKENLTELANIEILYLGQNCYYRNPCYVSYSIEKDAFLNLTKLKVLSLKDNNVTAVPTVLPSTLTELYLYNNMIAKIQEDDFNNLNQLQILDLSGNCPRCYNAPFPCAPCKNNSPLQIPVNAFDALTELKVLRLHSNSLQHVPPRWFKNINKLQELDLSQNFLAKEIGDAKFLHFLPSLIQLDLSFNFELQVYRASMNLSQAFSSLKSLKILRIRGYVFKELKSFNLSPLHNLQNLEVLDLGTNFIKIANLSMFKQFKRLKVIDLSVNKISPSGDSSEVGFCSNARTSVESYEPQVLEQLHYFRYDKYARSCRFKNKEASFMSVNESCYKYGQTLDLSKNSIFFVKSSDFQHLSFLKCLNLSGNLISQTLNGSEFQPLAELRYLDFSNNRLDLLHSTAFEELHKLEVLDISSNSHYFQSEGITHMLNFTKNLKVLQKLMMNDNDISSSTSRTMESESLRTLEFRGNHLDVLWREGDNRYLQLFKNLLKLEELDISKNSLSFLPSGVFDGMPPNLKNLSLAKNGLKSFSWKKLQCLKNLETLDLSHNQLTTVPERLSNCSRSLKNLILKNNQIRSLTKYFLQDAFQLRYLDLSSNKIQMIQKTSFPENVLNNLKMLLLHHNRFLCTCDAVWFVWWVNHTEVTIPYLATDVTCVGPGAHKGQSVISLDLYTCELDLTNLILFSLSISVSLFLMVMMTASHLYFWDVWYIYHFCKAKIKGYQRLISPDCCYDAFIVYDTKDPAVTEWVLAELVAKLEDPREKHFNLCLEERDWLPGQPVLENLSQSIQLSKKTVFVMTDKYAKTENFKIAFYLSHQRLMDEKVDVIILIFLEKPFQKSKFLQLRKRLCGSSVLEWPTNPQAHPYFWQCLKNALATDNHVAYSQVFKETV
Method in brief: (§1)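 Compound treatment: 30 min, RT, 0.05 nM–50 μM final. Agonist: TLR7 gardiquimod 7.5 μM; TLR8 R848 15.9 μM; TLR9 ODN2006 5 nM. Incubation 22 h, 37 °C, 5% CO2. Readout SEAP, HEK-Blue Detection.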

[2] = biological target: T2, human TLR9 (Homo sapiens, UniProt Q9NR96); test: TLR9 inhibition reporter assay (HEK-Blue cells, SEAP reporter, ODN2006 stimulation); conditions: HEK-Blue cells overexpressing human TLR9, SEAP reporter, ODN2006 5 nM
T2 construct: host or cells: HEK-Blue cells
T2 sequence (Q9NR96 26-1032): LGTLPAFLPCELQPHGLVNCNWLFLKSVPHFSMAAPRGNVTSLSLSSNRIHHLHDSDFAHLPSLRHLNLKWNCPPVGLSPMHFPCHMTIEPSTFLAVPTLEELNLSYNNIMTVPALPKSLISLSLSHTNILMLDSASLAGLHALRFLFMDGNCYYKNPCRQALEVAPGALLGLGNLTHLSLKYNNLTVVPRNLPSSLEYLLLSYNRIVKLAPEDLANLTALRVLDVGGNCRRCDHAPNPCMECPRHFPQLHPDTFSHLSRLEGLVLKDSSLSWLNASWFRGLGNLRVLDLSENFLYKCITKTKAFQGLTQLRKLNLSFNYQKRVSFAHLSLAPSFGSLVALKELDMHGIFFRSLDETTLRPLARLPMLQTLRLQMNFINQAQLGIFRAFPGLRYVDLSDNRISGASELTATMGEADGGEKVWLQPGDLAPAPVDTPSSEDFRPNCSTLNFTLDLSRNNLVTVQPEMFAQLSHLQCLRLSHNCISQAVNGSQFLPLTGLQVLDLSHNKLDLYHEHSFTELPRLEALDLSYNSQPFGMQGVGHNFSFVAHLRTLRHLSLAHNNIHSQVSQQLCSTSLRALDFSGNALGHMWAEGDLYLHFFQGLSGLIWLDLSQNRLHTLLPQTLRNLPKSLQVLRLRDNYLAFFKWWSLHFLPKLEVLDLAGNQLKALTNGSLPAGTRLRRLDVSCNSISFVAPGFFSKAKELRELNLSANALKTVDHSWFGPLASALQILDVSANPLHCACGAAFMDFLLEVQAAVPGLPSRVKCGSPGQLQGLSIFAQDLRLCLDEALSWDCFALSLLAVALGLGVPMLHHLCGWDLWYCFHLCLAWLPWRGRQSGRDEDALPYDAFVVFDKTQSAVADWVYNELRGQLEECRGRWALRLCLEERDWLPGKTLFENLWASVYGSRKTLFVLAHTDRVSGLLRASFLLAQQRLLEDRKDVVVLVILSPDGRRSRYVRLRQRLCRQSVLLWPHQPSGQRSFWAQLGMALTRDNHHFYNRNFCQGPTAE
Method in brief: as §1

[3] = biological target: T3, human TLR8 (Homo sapiens, UniProt Q9NR97); test: TLR8 inhibition reporter assay (HEK-Blue cells, SEAP reporter, R848 stimulation); conditions: HEK-Blue cells overexpressing human TLR8, SEAP reporter, R848 15.9 μM; read-out: TLR8 IC50
T3 construct: host or cells: HEK-Blue cells
T3 sequence (Q9NR97 27-1041): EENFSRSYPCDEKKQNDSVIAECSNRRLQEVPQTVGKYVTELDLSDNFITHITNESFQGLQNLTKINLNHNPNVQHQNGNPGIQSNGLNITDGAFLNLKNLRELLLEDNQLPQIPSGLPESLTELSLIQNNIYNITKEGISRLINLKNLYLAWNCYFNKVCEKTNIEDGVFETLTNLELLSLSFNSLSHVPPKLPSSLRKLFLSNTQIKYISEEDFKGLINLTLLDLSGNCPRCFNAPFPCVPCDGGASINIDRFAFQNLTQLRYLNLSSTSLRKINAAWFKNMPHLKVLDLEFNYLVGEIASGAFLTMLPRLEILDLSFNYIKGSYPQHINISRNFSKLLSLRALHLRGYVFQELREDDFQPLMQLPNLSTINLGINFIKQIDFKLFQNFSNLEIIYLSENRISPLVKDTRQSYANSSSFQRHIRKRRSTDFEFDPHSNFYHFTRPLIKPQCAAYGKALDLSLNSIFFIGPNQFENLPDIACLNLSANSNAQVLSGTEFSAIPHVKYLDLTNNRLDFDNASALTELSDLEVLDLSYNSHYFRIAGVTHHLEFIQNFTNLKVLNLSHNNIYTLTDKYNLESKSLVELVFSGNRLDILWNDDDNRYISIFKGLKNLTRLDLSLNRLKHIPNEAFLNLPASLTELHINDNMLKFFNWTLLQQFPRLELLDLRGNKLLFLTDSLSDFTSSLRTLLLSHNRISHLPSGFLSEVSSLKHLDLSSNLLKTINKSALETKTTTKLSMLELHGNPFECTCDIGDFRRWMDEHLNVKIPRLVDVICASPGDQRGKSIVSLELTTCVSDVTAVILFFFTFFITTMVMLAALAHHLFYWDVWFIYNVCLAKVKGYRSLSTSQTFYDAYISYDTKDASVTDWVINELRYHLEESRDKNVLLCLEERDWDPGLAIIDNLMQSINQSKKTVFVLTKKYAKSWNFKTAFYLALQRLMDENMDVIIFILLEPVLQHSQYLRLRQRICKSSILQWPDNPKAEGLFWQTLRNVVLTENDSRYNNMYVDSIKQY
Method in brief: as §1

IC50 [1]	IC50 [2]	IC50 [3]	Compound
2.24 nM	5500 nM	1.66 nM	Cc1c(-c2[nH]c3sc(C4CCC(NC(C)C)CC4)nc3c2C(C)C)cn2ncnc2c1C (single isomer, unassigned) [Example 195, 4-(5-(7,8-dimethyl-[1,2,4]triazolo[1,5-a]pyridin-6-yl)-6-isopropyl-4H-pyrrolo[3,2-d]thiazol-2-yl)-N-isopropylcyclohexan-1-amine]
1.13 nM	12700 nM	0.17 nM	Cc1c(-c2[nH]c3sc(C4CCC(NCC(C)(C)O)CC4)nc3c2C(C)C)cn2ncnc2c1C (single isomer, unassigned) [Example 196, 1-((4-(5-(7,8-dimethyl-[1,2,4]triazolo[1,5-a]pyridin-6-yl)-6-isopropyl-4H-pyrrolo[3,2-d]thiazol-2-yl)cyclohexyl)amino)-2-methylpropan-2-ol]
5.35 nM	13100 nM	2.08 nM	Cc1c(-c2[nH]c3sc(C4CCC(NCC(C)(C)O)CC4)nc3c2C(C)C)cn2ncnc2c1C (single isomer, unassigned) [Example 197, 1-((4-(5-(7,8-dimethyl-[1,2,4]triazolo[1,5-a]pyridin-6-yl)-6-isopropyl-4H-pyrrolo[3,2-d]thiazol-2-yl)cyclohexyl)amino)-2-methylpropan-2-ol]
4.98 nM	2950 nM	2.19 nM	Cc1c(-c2[nH]c3sc(C4CCC(NCC(C)(C)C)CC4)nc3c2C(C)C)cn2ncnc2c1C (single isomer, unassigned) [Example 199, 4-(5-(7,8-dimethyl-[1,2,4]triazolo[1,5-a]pyridin-6-yl)-6-isopropyl-4H-pyrrolo[3,2-d]thiazol-2-yl)-N-neopentylcyclohexan-1-amine]
0.92 nM	10100 nM	0.39 nM	Cc1c(-c2[nH]c3sc(C4CCC(NC5CCOCC5)CC4)nc3c2C(C)C)cn2ncnc2c1C (single isomer, unassigned) [Example 200, N-(4-(5-(7,8-dimethyl-[1,2,4]triazolo[1,5-a]pyridin-6-yl)-6-isopropyl-4H-pyrrolo[3,2-d]thiazol-2-yl)cyclohexyl)tetrahydro-2H-pyran-4-amine]
6.66 nM	9250 nM	4.21 nM	Cc1c(-c2[nH]c3sc(C4CCC(NC5CCOCC5)CC4)nc3c2C(C)C)cn2ncnc2c1C (single isomer, unassigned) [Example 201, N-(4-(5-(7,8-dimethyl-[1,2,4]triazolo[1,5-a]pyridin-6-yl)-6-isopropyl-4H-pyrrolo[3,2-d]thiazol-2-yl)cyclohexyl)tetrahydro-2H-pyran-4-amine]
1.5 nM	17800 nM	0.63 nM	Cc1c(-c2[nH]c3sc(C4CCC(NCC(=O)N(C)C)CC4)nc3c2C(C)C)cn2ncnc2c1C (single isomer, unassigned) [Example 204, 2-((4-(5-(7,8-dimethyl-[1,2,4]triazolo[1,5-a]pyridin-6-yl)-6-isopropyl-4H-pyrrolo[3,2-d]thiazol-2-yl)cyclohexyl)amino)-N,N-dimethylacetamide]
6.66 nM	21500 nM	2.33 nM	Cc1c(-c2[nH]c3sc(C4CCC(NCC(=O)N(C)C)CC4)nc3c2C(C)C)cn2ncnc2c1C (single isomer, unassigned) [Example 205, 2-((4-(5-(7,8-dimethyl-[1,2,4]triazolo[1,5-a]pyridin-6-yl)-6-isopropyl-4H-pyrrolo[3,2-d]thiazol-2-yl)cyclohexyl)amino)-N,N-dimethylacetamide]
1 nM	20000 nM	0.52 nM	CNC(=O)CNC1CCC(c2nc3c(C(C)C)c(-c4cn5ncnc5c(C)c4C)[nH]c3s2)CC1 (single isomer, unassigned) [Example 208, 2-((4-(5-(7,8-dimethyl-[1,2,4]triazolo[1,5-a]pyridin-6-yl)-6-isopropyl-4H-pyrrolo[3,2-d]thiazol-2-yl)cyclohexyl)amino)-N-methylacetamide]
